Read-outs that look alike come from different tables or passages of the source.
Legend:
[1] = test system: P. falciparum 3D7 parasites; experiment: P. falciparum growth inhibition assay, 2-cycle (120 h treatment), delayed-death screen and dose-response; assay type: cell-based, Plasmodium falciparum; conditions: for activity at 2 µg/mL: Plasmodium falciparum, 3D7, 120 h
[2] = test system: P. falciparum 3D7 parasites; experiment: P. falciparum growth inhibition assay, 1-cycle (72 h treatment), SYBR DNA staining (library screen at 2 μg/mL and dose-response); assay type: cell-based, Plasmodium falciparum; conditions: for activity at 2 µg/mL: Plasmodium falciparum, 3D7, 72 h
[3] = test system: T. gondii RH strain (RH-Tub-eYFP) tachyzoites; experiment: microbe, parasite or virus in culture; assay type: cell-based, Toxoplasma gondii; conditions: for percent parasite growth at 2 µg/mL: Toxoplasma gondii
[4] = library screen at 2 μg/mL, 120 h, % growth, replicate 1
[5] = library screen at 2 μg/mL, 120 h, % growth, replicate 2
[6] = library screen at 2 μg/mL, 72 h, % growth, replicate 1
[7] = library screen at 2 μg/mL, 72 h, % growth, replicate 2
[8] = P. falciparum, 120 h, screen at 2 μg/mL, replicate 1
[9] = P. falciparum, 120 h, screen at 2 μg/mL, replicate 2
[10] = P. falciparum, 72 h, screen at 2 μg/mL, replicate 1
[11] = P. falciparum, 72 h, screen at 2 μg/mL, replicate 2
[12] = T. gondii, 72 h, screen at 2 μg/mL, replicate 1
[13] = T. gondii, 72 h, screen at 2 μg/mL, replicate 2
[14] = library screen at 2 μg/mL, 120 h, % growth, replicate 1, read-out: Pf_120h_%Growth_Rep1
[15] = library screen at 2 μg/mL, 120 h, % growth, replicate 2, read-out: Pf_120h_%Growth_Rep2
[16] = library screen at 2 μg/mL, 72 h, % growth, replicate 1, read-out: Pf_72h_%Growth_Rep1
[17] = library screen at 2 μg/mL, 72 h, % growth, replicate 2, read-out: Pf_72h_%Growth_Rep2
[18] = 72 h, library screen at 2 μg/mL, 72 h, % growth, replicate 1, read-out: Tg_72h_%Growth_Rep1
[19] = 72 h, library screen at 2 μg/mL, 72 h, % growth, replicate 2, read-out: Tg_72h_%Growth_Rep2

## CCOC(=O)c1c(C)cc(O)cc1O [Ethyl orsellinate]
[1]; [4]
  Pf_120h_%Growth_Rep1: 96.78%
[1]; [5]
  Pf_120h_%Growth_Rep2: 106.42%
[2]; [6]
  Pf_72h_%Growth_Rep1: 90.89%
[2]; [7]
  Pf_72h_%Growth_Rep2: 117.50%
[3]; [6]
  Tg_72h_%Growth_Rep1: 128.38%
[3]; [7]
  Tg_72h_%Growth_Rep2: 103.54%

## CC(=O)OC[C@@H](NC(=O)C(Cl)Cl)[C@H](O)c1ccc([N+](=O)[O-])cc1 [Chloramphenicol acetate]
[1]; [8]
  Pf_120h_%Growth_Rep1: 100.35%
[1]; [9]
  Pf_120h_%Growth_Rep2: 90.22%
[2]; [10]
  Pf_72h_%Growth_Rep1: 90.71%
[2]; [11]
  Pf_72h_%Growth_Rep2: 92.14%
[3]; [12]
  Tg_72h_%Growth_Rep1: 132.16%
[3]; [13]
  Tg_72h_%Growth_Rep2: 92.80%

## O=C(O)C1CSC(c2ccccc2O)=N1 (stereo not drawn) [Dihydroaeruginoic acid]
[1]; [4]
  Pf_120h_%Growth_Rep1: 53.55%
[1]; [5]
  Pf_120h_%Growth_Rep2: 57.05%
[2]; [6]
  Pf_72h_%Growth_Rep1: 74.36%
[2]; [7]
  Pf_72h_%Growth_Rep2: 72.53%
[3]; [6]
  Tg_72h_%Growth_Rep1: 51.46%
[3]; [7]
  Tg_72h_%Growth_Rep2: 84.93%

## C=CCNC1=C2C[C@@H](C)C[C@H](OC)[C@H](O)[C@@H](C)/C=C(\C)[C@H](OC(N)=O)[C@@H](OC)/C=C\C=C(/C)C(=O)NC(=CC1=O)C2=O [Allylamino-17-demethoxygeldanamycin, 17-]
[1]; [4]
  Pf_120h_%Growth_Rep1: 19.67%
[1]; [5]
  Pf_120h_%Growth_Rep2: 7.18%
[2]; [6]
  Pf_72h_%Growth_Rep1: 14.05%
[2]; [7]
  Pf_72h_%Growth_Rep2: 5.13%
[3]; [6]
  Tg_72h_%Growth_Rep1: -1.02%
[3]; [7]
  Tg_72h_%Growth_Rep2: -0.21%

## COC[C@@H](C[C@H]1O[C@@](O)([C@H](O)[C@@H]2C[C@H](OC)[C@@H](O)CC/C=C(C)/C=C/[C@@H](O[C@@H]3O[C@@H](C)[C@H](OC)[C@@H](O)[C@@H]3O)[C@H](C)/C=C(C)/C=C(C)/C=C(\C)C(=O)O2)[C@H](C)[C@@H](O)[C@H]1C)OC1C[C@](C)(O)[C@@H](O[C@H]2C[C@@H](OC)[C@H](O)[C@@H](C)O2)[C@H](C)O1 (stereo partly drawn) [Apoptolidin]
[1]; [14]
  activity at 2 µg/mL: 34.5%
[1]; [15]
  activity at 2 µg/mL: 23.8%
[2]; [16]
  activity at 2 µg/mL: 59%
[2]; [17]
  activity at 2 µg/mL: 49.8%
[3]; [18]
  percent parasite growth at 2 µg/mL: 76.4%
[3]; [19]
  percent parasite growth at 2 µg/mL: 73%

## Aflatoxin G2
[1]
  Pf_120h_%Growth_Rep1: 98.15%
  Pf_120h_%Growth_Rep2: 97.03%
[2]
  Pf_72h_%Growth_Rep1: 83.21%
  Pf_72h_%Growth_Rep2: 86.33%
[3]
  Tg_72h_%Growth_Rep1: 134.03%
  Tg_72h_%Growth_Rep2: 98.49%

## Capreomycin sulfate
[1]; [8]
  Pf_120h_%Growth_Rep1: 94.57%
[1]; [9]
  Pf_120h_%Growth_Rep2: 87.91%
[2]; [10]
  Pf_72h_%Growth_Rep1: 82.18%
[2]; [11]
  Pf_72h_%Growth_Rep2: 86.69%
[3]; [12]
  Tg_72h_%Growth_Rep1: 114.86%
[3]; [13]
  Tg_72h_%Growth_Rep2: 91.40%

## CC(=O)O[C@H]1C[C@@]2(C)[C@@H](C[C@@H](O)[C@H]3[C@@]4(C)CC[C@@H](O)[C@@H](C)[C@@H]4CC[C@@]32C)/C1=C(\CCC=C(C)C)C(=O)O [Fusidate sodium]
[1]; [14]
  activity at 2 µg/mL: 91.2%
[1]; [15]
  activity at 2 µg/mL: 139%
[2]; [16]
  activity at 2 µg/mL: 87.5%
[2]; [17]
  activity at 2 µg/mL: 96%
[3]; [18]
  percent parasite growth at 2 µg/mL: 111%
[3]; [19]
  percent parasite growth at 2 µg/mL: 91.8%

## Cc1cc(O)c(C=O)c2c1C(=O)Oc1c(CO)c(O)c3c(c1O2)C(O)OC3=O (stereo not drawn) [Salazinic acid]
[1]; P. falciparum, 120 h, parasite screen 2 μg/mL, % growth, replicate 1
  Pf_120h_%Growth_Rep1: 77.56%
[1]; P. falciparum, 120 h, parasite screen 2 μg/mL, % growth, replicate 2
  Pf_120h_%Growth_Rep2: 74.04%
[2]; P. falciparum, 72 h, parasite screen 2 μg/mL, % growth, replicate 1
  Pf_72h_%Growth_Rep1: 86.18%
[2]; P. falciparum, 72 h, parasite screen 2 μg/mL, % growth, replicate 2
  Pf_72h_%Growth_Rep2: 54.69%
[3]; T. gondii, 72 h, parasite screen 2 μg/mL, % growth, replicate 1
  Tg_72h_%Growth_Rep1: 117.03%
[3]; T. gondii, 72 h, parasite screen 2 μg/mL, % growth, replicate 2
  Tg_72h_%Growth_Rep2: 97.23%

## CCCCCC(=O)NC1CCOC1=O (stereo not drawn) [BIA-H1495]
[1]; P. falciparum 3D7, 120 h, library screen at 2 μg/mL, % growth, replicate 1
  Pf_120h_%Growth_Rep1: 97.98%
[1]; P. falciparum 3D7, 120 h, library screen at 2 μg/mL, % growth, replicate 2
  Pf_120h_%Growth_Rep2: 95.38%
[2]; P. falciparum 3D7, 72 h, library screen at 2 μg/mL, % growth, replicate 1
  Pf_72h_%Growth_Rep1: 85.11%
[2]; P. falciparum 3D7, 72 h, library screen at 2 μg/mL, % growth, replicate 2
  Pf_72h_%Growth_Rep2: 87.66%
[3]; T. gondii RH, 72 h, library screen at 2 μg/mL, % growth, replicate 1
  Tg_72h_%Growth_Rep1: 133.00%
[3]; T. gondii RH, 72 h, library screen at 2 μg/mL, % growth, replicate 2
  Tg_72h_%Growth_Rep2: 97.80%
